Reference: ChEMBL document CHEMBL5705888, “Substrate specificity and inhibitors of LRRK2, a protein kinase mutated in Parkinson's disease” (Biochem J, 2009)
The source made the active and inactive calls. No cut-off for these calls is given here.

What was measured:
[1] = target: Leucine-rich repeat serine/threonine-protein kinase 2 (Homo sapiens, UniProt Q5S007, G2019S); experiment: Inhibition of GST-tagged LRRK2 G2019S mutant (1326 to 2527 residues) (unknown origin) in presence of ATP
[2] = target: Leucine-rich repeat serine/threonine-protein kinase 2 (Mus musculus) (UniProt Q5S006); experiment: Inhibition of LRRK2 in mouse Swiss-3T3 cells at 2 uM using Nictide as substrate by immunoblot analysis; type: cell-based
Chain of Leucine-rich repeat serine/threonine-protein kinase 2 (Mus musculus) (Q5S006 whole entry): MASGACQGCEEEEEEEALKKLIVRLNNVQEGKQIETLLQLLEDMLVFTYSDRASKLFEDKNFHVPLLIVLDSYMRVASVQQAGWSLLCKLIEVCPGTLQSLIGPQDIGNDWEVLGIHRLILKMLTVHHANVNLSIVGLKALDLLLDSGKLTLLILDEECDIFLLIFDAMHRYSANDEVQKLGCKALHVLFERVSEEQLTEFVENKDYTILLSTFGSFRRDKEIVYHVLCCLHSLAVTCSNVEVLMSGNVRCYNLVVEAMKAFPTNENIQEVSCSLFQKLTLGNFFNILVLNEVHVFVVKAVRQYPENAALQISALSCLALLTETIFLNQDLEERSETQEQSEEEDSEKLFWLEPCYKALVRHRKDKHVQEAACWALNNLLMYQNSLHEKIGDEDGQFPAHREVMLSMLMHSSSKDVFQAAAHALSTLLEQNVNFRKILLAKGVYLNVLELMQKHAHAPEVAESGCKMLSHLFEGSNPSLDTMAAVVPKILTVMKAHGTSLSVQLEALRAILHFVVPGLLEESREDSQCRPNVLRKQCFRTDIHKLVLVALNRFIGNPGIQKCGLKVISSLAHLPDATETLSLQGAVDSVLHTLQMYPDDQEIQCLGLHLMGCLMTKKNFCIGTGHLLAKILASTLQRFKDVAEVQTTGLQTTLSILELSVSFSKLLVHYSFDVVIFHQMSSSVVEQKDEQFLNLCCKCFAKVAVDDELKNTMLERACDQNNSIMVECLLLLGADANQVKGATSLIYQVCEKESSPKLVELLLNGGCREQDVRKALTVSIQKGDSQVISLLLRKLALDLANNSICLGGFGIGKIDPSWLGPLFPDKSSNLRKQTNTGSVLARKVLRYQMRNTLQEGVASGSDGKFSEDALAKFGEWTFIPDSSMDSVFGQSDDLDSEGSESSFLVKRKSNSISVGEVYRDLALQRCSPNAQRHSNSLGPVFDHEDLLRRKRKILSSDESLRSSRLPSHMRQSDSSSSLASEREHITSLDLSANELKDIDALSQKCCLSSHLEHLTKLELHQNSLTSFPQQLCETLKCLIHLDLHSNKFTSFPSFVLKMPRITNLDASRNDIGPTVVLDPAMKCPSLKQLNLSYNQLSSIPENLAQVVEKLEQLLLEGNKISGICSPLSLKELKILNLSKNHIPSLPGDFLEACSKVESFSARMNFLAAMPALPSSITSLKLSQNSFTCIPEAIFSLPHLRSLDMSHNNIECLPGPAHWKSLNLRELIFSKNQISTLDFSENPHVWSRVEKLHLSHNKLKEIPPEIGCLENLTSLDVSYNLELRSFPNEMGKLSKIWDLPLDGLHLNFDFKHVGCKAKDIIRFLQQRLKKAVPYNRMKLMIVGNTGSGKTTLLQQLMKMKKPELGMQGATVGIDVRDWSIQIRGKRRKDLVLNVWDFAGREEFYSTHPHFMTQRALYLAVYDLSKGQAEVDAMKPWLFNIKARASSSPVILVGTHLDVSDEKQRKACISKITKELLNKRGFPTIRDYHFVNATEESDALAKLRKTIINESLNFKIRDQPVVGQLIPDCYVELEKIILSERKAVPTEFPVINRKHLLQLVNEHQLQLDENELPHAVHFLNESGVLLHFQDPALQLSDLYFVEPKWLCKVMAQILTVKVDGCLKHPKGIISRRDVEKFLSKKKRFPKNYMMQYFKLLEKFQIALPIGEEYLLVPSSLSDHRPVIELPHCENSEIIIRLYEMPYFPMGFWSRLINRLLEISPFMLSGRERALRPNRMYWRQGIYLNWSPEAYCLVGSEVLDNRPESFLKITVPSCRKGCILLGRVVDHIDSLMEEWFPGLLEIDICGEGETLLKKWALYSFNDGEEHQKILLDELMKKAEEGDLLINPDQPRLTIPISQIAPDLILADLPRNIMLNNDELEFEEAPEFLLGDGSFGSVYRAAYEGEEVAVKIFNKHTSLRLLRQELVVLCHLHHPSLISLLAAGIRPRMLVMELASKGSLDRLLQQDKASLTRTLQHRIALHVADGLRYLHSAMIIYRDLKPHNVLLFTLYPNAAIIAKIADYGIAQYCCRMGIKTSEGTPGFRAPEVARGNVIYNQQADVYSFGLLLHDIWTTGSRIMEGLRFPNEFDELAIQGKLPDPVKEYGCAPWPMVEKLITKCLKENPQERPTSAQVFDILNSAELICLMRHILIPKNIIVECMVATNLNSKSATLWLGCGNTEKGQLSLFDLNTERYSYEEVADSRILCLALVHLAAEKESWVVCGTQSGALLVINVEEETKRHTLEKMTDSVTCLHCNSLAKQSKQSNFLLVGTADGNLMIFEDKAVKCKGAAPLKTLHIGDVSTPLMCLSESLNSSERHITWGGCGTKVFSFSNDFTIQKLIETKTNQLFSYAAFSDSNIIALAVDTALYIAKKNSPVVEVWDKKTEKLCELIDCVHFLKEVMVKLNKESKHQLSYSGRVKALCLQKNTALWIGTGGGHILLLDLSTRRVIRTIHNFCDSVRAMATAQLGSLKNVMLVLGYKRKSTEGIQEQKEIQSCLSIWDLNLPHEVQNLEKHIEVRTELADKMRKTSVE

[3] = target: T1, Ephrin type-B receptor 3 (Homo sapiens) (UniProt P54753); experiment: Inhibition of EPH-B3 (unknown origin) at 10 uM incubated for 30 mins in presence of [gamma-33P]ATP by multidrop micro reagent based assay relative to control; values are per cent of control
T1 sequence (whole entry): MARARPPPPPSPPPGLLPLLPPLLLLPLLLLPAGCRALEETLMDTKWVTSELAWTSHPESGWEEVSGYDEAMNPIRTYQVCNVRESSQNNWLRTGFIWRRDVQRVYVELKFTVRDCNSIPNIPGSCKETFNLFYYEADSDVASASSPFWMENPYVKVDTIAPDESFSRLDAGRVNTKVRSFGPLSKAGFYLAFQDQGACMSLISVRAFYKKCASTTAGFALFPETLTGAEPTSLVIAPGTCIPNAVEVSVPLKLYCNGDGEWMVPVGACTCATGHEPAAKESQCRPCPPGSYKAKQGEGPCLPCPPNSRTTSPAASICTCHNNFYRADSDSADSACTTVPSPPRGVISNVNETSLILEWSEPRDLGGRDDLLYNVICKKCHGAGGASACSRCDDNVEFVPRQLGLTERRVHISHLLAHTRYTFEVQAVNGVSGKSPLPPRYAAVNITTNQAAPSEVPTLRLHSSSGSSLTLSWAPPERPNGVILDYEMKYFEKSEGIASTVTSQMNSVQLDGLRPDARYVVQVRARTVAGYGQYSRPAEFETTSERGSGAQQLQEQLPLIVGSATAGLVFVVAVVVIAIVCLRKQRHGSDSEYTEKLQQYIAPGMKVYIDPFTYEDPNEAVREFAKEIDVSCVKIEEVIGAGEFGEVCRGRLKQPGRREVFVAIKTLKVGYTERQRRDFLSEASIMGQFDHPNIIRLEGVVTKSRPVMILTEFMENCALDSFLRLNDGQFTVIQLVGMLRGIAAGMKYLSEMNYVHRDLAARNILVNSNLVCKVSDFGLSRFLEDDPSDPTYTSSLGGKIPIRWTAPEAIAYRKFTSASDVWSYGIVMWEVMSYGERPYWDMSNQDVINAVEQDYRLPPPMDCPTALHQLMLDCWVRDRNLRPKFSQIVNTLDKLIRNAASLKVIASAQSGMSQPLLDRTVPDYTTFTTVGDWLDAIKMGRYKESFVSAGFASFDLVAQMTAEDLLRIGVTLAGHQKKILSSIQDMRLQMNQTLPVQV

[4] = target: Tyrosine-protein kinase BTK (Homo sapiens) (UniProt Q06187); experiment: Inhibition of BTK (unknown origin) at 10 uM incubated for 30 mins in presence of [gamma-33P]ATP by multidrop micro reagent based assay relative to control; values are per cent of control
[5] = target: Mitogen-activated protein kinase 9 (Homo sapiens) (UniProt P45984); experiment: Inhibition of JNK2 (unknown origin) at 10 uM incubated for 30 mins in presence of [gamma-33P]ATP by multidrop micro reagent based assay relative to control; values are per cent of control
[6] = target: Leucine-rich repeat serine/threonine-protein kinase 2 (Homo sapiens, UniProt Q5S007); experiment: Inhibition of LRRK2 (unknown origin) at 10 uM incubated for 30 mins in presence of [gamma-33P]ATP by multidrop micro reagent based assay relative to control
[7] = target: T2, MAP kinase-activated protein kinase 5 (Homo sapiens) (UniProt Q8IW41); experiment: Inhibition of PRAK (unknown origin) at 10 uM incubated for 30 mins in presence of [gamma-33P]ATP by multidrop micro reagent based assay relative to control; values are per cent of control
T2 sequence (whole entry): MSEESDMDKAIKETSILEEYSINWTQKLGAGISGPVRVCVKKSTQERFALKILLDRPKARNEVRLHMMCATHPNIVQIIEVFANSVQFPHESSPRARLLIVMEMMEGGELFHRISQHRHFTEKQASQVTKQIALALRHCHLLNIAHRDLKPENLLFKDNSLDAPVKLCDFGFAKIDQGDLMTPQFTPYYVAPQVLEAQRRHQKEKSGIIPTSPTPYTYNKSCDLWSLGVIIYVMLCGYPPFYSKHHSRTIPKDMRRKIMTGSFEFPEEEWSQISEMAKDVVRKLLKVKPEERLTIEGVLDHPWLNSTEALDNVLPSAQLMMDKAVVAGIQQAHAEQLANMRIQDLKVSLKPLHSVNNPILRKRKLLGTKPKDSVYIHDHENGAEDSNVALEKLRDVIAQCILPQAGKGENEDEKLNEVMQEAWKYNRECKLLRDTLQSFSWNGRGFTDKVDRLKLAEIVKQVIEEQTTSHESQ

[8] = target: Serine/threonine-protein kinase D1 (Homo sapiens) (UniProt Q15139); experiment: Residual activity of PKD1 (unknown origin) at 10 uM incubated for 30 mins in presence of [gamma-33P]ATP by multidrop micro reagent based assay relative to control
[9] = target: Serine/threonine-protein kinase pim-3 (Homo sapiens) (UniProt Q86V86); experiment: Inhibition of PIM3 (unknown origin) at 10 uM incubated for 30 mins in presence of [gamma-33P]ATP by multidrop micro reagent based assay relative to control; values are per cent of control
[10] = target: Homeodomain-interacting protein kinase 2 (Homo sapiens) (UniProt Q9H2X6); experiment: Inhibition of HIPK2 (unknown origin) at 1 uM incubated for 30 mins in presence of [gamma-33P]ATP by multidrop micro reagent based assay relative to control; values are per cent of control
[11] = target: Rho-associated protein kinase 2 (Homo sapiens, UniProt O75116); experiment: Inhibition of His6-tagged ROCK2 (2 to 543 residues) (unknown origin) using peptide as substrate incubated for 15 mins in presence of ATP by immunoblotting analysis
Chain of Rho-associated protein kinase 2 (O75116 whole entry, the tested form may be a part): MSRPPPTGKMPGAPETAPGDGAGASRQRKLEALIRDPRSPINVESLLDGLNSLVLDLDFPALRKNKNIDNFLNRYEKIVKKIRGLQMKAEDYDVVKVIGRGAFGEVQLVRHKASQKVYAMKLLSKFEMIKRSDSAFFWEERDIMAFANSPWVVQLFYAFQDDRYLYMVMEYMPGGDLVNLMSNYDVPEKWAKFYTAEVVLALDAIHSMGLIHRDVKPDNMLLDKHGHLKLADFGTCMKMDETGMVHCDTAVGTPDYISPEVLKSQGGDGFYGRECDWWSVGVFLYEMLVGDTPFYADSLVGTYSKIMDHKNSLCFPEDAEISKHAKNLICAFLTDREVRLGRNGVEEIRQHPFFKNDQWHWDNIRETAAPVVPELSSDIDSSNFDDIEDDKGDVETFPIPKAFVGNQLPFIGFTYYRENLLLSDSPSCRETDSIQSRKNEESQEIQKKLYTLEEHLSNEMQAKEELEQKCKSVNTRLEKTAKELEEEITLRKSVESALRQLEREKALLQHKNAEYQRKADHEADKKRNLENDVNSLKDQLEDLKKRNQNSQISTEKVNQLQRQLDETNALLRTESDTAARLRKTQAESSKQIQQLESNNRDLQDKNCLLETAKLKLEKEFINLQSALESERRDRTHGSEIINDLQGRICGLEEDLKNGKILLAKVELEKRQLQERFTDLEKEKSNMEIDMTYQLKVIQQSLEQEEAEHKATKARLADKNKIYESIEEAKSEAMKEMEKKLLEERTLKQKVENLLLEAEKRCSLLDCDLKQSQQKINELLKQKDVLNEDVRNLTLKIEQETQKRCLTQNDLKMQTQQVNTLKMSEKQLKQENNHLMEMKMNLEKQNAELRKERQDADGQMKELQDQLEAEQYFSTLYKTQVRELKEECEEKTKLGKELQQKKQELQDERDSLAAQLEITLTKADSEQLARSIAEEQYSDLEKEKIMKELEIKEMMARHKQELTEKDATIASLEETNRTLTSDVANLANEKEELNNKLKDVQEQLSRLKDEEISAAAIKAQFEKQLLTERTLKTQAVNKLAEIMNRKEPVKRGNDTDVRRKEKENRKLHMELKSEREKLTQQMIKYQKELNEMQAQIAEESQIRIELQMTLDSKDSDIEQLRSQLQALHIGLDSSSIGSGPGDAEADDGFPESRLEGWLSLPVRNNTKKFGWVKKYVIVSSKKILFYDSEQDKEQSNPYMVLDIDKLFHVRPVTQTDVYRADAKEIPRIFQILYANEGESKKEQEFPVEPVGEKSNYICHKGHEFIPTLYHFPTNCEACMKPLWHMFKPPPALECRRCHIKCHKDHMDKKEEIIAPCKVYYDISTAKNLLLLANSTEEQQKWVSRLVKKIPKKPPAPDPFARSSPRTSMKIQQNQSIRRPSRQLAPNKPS

[12] = target: 3-phosphoinositide-dependent protein kinase 1 (Homo sapiens) (UniProt O15530); experiment: Inhibition of PDK1 (unknown origin) at 1 uM incubated for 30 mins in presence of [gamma-33P]ATP by multidrop micro reagent based assay relative to control; values are per cent of control
Chain of 3-phosphoinositide-dependent protein kinase 1 (Homo sapiens) (O15530 whole entry, looked up): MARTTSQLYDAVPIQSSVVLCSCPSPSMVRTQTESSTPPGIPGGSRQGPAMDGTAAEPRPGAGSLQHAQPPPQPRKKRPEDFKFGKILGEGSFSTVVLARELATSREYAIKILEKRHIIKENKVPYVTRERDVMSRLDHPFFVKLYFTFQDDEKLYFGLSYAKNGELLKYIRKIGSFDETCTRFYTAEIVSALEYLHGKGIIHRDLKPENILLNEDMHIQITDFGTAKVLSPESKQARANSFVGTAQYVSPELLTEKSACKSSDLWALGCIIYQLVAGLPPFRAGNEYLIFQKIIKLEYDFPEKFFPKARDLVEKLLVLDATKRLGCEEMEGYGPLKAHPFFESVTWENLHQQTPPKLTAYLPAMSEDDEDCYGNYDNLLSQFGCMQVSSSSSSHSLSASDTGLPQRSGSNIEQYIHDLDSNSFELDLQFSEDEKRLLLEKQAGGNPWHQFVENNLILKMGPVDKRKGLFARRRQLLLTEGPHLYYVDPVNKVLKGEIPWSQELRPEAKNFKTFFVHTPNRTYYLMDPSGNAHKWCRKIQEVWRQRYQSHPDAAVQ

[13] = target: Misshapen-like kinase 1 (Homo sapiens) (UniProt Q8N4C8); experiment: Inhibition of MINK1 (unknown origin) at 0.1 uM incubated for 30 mins in presence of [gamma-33P]ATP by multidrop micro reagent based assay relative to control

## Cc1cncc2cccc(S(=O)(=O)N3CCCNC[C@@H]3C)c12
[1]
  IC50: 104 nM
[2]
  inhibition: Active

## O=S(=O)(c1cccc2cnccc12)N1CCCNCC1 [FASUDIL]
[3]
  residual activity: 65%
[4]
  residual activity: 112%

## C[C@@H](N)[C@H]1CC[C@H](C(=O)Nc2ccncc2)CC1
[5]
  residual activity: 96%
[6]
  inhibition: 22%
[7]
  residual activity: 88%
[8]
  residual activity: 89%
[9]
  residual activity: 87%

## CC1=C(C(=O)Nc2cc3cn[nH]c3cc2F)C(c2ccc(C(F)(F)F)cc2)CC(=O)N1 (stereo not drawn)
[10]
  residual activity: 104%
[11]
  IC50: 63 nM
[12]
  residual activity: 120%

## CCN(CC)CCNC(=O)c1c(C)[nH]c(/C=C2\C(=O)Nc3ccc(F)cc32)c1C
[13]
  inhibition: 46%
